In patent publication US12649737B2, “Compounds and uses thereof” (Foghorn Therapeutics Inc., priority 2020, dated 2026):

Key:
BRG-1 = biological target: T1, BRG-1 (Homo sapiens, UniProt P51532); experiment: ATPase catalytic activity assay of BRG-1 (ADP-Glo); format: biochemical; conditions: 30 nM BRG-1, 400 μM ATP, 20 nM salmon sperm DNA, 1 hour at room temperature; read-out: BRG1 ATPase: IC50
T1 construct: made in house; host or cells: High Five insect cells
Description: (§1) Example 38. Assay for ATPase Catalytic Activity of BRM and BRG-1
(§2) The ADP-Glo™ kinase assay is performed in two steps once the reaction is complete.

BRM = biological target: T2, BRM (Homo sapiens, UniProt P51531); experiment: ATPase catalytic activity assay of BRM (ADP-Glo); format: biochemical; conditions: 30 nM BRM, 400 μM ATP, 20 nM salmon sperm DNA, 1 hour at room temperature
T2 construct: made in house; host or cells: High Five insect cells
T2 sequence (P51531 whole entry): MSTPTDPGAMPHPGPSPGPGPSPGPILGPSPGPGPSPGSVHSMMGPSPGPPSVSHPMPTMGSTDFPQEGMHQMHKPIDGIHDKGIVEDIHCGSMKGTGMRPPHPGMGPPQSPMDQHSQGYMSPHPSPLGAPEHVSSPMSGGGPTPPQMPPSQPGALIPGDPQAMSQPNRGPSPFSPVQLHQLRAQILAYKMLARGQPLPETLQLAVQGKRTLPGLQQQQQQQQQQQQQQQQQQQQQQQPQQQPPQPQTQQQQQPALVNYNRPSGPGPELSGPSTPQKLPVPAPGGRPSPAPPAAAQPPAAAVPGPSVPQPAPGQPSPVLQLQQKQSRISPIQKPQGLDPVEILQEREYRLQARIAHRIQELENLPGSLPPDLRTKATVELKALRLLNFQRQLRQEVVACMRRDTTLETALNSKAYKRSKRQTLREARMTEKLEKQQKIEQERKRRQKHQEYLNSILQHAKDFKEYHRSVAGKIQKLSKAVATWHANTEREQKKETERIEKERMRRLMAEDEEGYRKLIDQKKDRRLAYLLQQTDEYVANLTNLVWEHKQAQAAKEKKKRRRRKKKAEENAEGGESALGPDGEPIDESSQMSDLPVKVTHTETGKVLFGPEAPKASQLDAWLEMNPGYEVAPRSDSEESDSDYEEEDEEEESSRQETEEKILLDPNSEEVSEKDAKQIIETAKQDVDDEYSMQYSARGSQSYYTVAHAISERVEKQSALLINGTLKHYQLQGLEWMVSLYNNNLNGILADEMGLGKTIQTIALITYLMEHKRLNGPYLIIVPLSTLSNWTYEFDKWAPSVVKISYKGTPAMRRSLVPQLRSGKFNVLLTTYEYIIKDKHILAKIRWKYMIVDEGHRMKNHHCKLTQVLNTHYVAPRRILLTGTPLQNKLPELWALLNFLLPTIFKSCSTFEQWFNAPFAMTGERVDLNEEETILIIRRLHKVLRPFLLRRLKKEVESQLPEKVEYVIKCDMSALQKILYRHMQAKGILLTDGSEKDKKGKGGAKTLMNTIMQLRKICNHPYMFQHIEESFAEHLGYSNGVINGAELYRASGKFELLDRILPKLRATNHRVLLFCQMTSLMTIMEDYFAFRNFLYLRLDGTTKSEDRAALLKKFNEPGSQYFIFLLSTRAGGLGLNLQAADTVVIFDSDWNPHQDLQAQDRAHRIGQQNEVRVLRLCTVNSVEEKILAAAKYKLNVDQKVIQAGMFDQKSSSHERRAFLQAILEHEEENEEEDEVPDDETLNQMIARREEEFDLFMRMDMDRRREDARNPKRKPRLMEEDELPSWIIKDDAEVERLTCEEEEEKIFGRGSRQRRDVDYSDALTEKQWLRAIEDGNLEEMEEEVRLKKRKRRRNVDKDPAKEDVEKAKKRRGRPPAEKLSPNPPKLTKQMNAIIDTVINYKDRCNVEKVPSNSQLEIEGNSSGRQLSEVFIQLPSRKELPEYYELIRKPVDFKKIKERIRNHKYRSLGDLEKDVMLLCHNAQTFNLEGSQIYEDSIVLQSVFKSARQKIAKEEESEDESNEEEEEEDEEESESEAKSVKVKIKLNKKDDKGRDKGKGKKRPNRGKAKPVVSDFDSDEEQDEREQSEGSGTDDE
Description: as §1, §2

T1 sequence (P51532 whole entry): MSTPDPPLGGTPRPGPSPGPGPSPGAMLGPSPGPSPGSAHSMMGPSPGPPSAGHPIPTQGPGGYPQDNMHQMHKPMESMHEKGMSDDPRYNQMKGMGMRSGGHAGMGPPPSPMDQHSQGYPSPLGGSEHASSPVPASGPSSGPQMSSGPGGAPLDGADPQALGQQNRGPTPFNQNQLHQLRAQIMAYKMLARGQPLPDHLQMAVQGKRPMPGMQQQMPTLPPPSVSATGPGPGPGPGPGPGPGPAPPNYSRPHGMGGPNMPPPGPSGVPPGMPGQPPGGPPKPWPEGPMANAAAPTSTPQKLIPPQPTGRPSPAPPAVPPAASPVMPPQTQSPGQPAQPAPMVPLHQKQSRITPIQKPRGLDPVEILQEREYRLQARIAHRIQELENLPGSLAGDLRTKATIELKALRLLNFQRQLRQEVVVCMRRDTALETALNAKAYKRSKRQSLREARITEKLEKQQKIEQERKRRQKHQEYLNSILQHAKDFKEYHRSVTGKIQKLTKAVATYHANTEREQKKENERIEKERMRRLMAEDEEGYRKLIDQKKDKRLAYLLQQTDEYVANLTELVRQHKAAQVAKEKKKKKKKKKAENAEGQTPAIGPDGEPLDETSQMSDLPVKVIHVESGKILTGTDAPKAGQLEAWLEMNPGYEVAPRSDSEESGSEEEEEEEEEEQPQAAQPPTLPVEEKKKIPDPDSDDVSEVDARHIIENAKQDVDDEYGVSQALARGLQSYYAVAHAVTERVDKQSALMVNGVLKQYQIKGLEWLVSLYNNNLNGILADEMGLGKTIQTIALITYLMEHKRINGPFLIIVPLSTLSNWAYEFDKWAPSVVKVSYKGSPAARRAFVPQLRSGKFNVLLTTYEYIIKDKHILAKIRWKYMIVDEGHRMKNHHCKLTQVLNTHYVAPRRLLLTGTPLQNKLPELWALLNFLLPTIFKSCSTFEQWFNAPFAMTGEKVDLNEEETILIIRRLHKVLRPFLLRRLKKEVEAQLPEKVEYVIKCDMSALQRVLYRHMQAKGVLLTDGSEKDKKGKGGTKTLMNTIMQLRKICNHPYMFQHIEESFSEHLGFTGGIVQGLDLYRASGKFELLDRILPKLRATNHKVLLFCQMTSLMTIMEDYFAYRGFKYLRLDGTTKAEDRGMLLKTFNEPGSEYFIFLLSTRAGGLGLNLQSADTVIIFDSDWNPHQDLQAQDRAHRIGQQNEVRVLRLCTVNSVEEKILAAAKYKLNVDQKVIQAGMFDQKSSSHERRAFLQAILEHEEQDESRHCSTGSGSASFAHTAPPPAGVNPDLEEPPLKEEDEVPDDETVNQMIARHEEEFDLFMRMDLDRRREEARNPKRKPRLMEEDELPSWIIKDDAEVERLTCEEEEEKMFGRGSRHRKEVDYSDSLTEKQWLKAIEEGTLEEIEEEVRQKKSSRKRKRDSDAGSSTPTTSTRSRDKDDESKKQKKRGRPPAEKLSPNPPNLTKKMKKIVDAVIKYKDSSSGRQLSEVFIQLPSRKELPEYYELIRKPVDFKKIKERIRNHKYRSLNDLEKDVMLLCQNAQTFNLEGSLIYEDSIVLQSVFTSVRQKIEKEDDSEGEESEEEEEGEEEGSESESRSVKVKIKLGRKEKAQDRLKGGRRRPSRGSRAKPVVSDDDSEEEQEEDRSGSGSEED

IC50 (BRG-1) [nM] | IC50 (BRM) [nM] | Compound
10 to 100 | 10 to 100 | Cn1ncc2c(-c3ccc4nc(CNC(=O)c5ccn(C(C)(C)C)c5)[nH]c4c3)cccc21 [Compound 48]
10 to 100 | 10 to 100 | Cc1ccc2cc(-c3ccc4nc(CNC(=O)c5ccn(C(C)(C)C)c5)[nH]c4c3)ccc2n1 [Compound 57]
100 to 1000 | 100 to 1000 | CS(=O)(=O)n1ccc(C(=O)NCc2cc3nc(-c4ccccc4)sc3cn2)c1 [Compound 73, 1-methylsulfonyl-N-[(2-phenylthiazolo[5,4-c]pyridin-6-yl)methyl]pyrrole-3-carboxamide]
100 to 1000 | 10 to 100 | CS(=O)(=O)n1ccc(C(=O)NCc2nc3ccc(-c4cccc(N5CCC(O)CC5)c4)cc3[nH]2)c1 [Compound 8, N-((6-(3-(4-hydroxypiperidin-1-yl)phenyl)-1H-benzo[d]imidazol-2-yl)methyl)-1-(methylsulfonyl)-1H-pyrrole-3-carboxamide]
100 to 1000 | 100 to 1000 | COC(=O)N1CCC[C@@H](c2ccc3nc(CNC(=O)c4ccn(S(C)(=O)=O)c4)[nH]c3n2)C1 [Compound 25]
100 to 1000 | 100 to 1000 | CC(C)(C)n1ccc(C(=O)NCc2nc3ccc(-c4ccc(CC#N)cc4)cc3[nH]2)c1 [Compound 53]
10 to 100 | 10 to 100 | Cn1cc2ccc(-c3ccc4nc(CNC(=O)c5ccn(C(C)(C)C)c5)[nH]c4c3)cc2n1 [Compound 33]
100 to 1000 | 10 to 100 | CS(=O)(=O)n1ccc(C(=O)NCc2cc3nc(-c4cccc(N5CCC5)c4)ccc3cn2)c1 [Compound 64, N-[[2-[3-(azetidin-1-yl)phenyl]-1,6-naphthyridin-7-yl]methyl]-1-methylsulfonyl-pyrrole-3-carboxamide]
10 to 100 | 10 to 100 | CC(C)(C)n1ccc(C(=O)NCc2nc3ccc(-c4cnn5ccccc45)cc3[nH]2)c1 [Compound 47]
100 to 1000 | 10 to 100 | COc1ccccc1-c1ccc2cnc(CNC(=O)c3ccn(S(C)(=O)=O)c3)cc2n1 [Compound 75]
10 to 100 | 10 to 100 | C[C@@H]1CN(c2cccc(-c3ccc4cnc(CNC(=O)c5ccn(C(C)(C)C)c5)cc4n3)n2)C[C@H](C)O1 [Compound 77]
100 to 1000 | 100 to 1000 | CS(=O)(=O)n1ccc(C(=O)NCc2cc3nc(-c4ccccc4)ccc3cn2)c1 [Compound 61, 1-(methylsulfonyl)-N-((2-phenyl-1,6-naphthyridin-7-yl)methyl)-1H-pyrrole-3-carboxamide]

More lines, now with the values behind:

Compound | IC50 (BRG-1) [nM] | IC50 (BRM) [nM]
Cn1ccc2ccc(-c3ccc4nc(CNC(=O)c5ccn(C6(C)COC6)c5)[nH]c4c3)cc2c1=O [Compound 20, N-((6-(2-methyl-1-oxo-1,2-dihydroisoquinolin-7-yl)-1H-benzo[d]imidazol-2-yl)methyl)-1-(3-methyloxetan-3-yl)-1H-pyrrole-3-carboxamide] | 100 to 1000 | 100 to 1000
CC(C)(C)OCc1cccc(-c2ccc3nc(CNC(=O)c4ccn(C(C)(C)C)c4)[nH]c3c2)c1 [Compound 46] | 100 to 1000 | 10 to 100
CC(C)(C)n1ccc(C(=O)NCc2nc3ccc(-c4ccc5c(c4)OCO5)cc3[nH]2)c1 [Compound 58] | 100 to 1000 | 10 to 100
CC(C)(C)n1ccc(C(=O)NCc2nc3ccc(-c4cncc5ccccc45)cc3[nH]2)c1 [Compound 38] | 100 to 1000 | 100 to 1000
Cc1ccc2ccc(-c3ccc4nc(CNC(=O)c5ccn(C(C)(C)C)c5)[nH]c4c3)cc2n1 [Compound 52] | 10 to 100 | 10 to 100
C[C@@H]1CN(c2cccc(-c3ccc4nc(CNC(=O)c5ccn(S(C)(=O)=O)c5)[nH]c4c3)c2)C[C@H](C)O1 [Compound 11] | 10 to 100 | 10 to 100
COCCOc1ccc(-c2ccc3nc(CNC(=O)c4ccn(C(C)(C)C)c4)[nH]c3c2)cc1 [Compound 59] | 100 to 1000 | 100 to 1000
CS(=O)(=O)n1ccc(C(=O)NCc2nc3ccc(N4CCCC(C5CCC5)C4)nc3[nH]2)c1 (stereo not drawn) [Compound 23] | 100 to 1000 | 100 to 1000
CC(C)(C)n1ccc(C(=O)NCc2nc3ccc(-c4cccc5ccncc45)cc3[nH]2)c1 [Compound 51] | 100 to 1000 | 10 to 100
CS(=O)(=O)n1ccc(C(=O)NCc2nc3ccc(-c4cccc(-c5ccncc5)c4)nc3[nH]2)c1 [Compound 2] | 10 to 100 | 10 to 100
CN1CCc2cc(-c3ccc4cnc(CNC(=O)c5ccn(S(C)(=O)=O)c5)cc4n3)ccc21 [Compound 72] | 100 to 1000 | 100 to 1000
CC(C)(C)n1ccc(C(=O)NCc2nc3ccc(-c4ccc(-n5cccn5)cc4)cc3[nH]2)c1 [Compound 54] | 100 to 1000 | 100 to 1000
C[C@@H]1CN(c2cccc(-c3ccc4cnc(CNC(=O)c5ccn(C(C)(C)C)n5)cc4n3)n2)C[C@H](C)O1 [Compound 78] | 100 to 1000 | 10 to 100
CS(=O)(=O)n1ccc(C(=O)NCc2nc3ccc(-c4ccc(N5CCC5)cc4)nc3[nH]2)c1 [Compound 9] | 10 to 100 | 10 to 100
CC(C)(C)n1ccc(C(=O)NCc2nc3ccc(-c4ccc(C5CC5)cc4)cc3[nH]2)c1 [Compound 37] | 100 to 1000 | 100 to 1000
